Test results published in patent publication US20150315241A1, “Antibiotic Peptides” (priority 2007, published 2015).
Converted amounts (≈) assume the structure as drawn. Read-outs that look alike come from different tables or passages of the source. Where a SMILES comes first, the peptide text is derived from it. Where no end group is shown, it is not given here. [ ]: non-standard residue; d: D form. The star is where a group is joined. Orn(α-tetramethylguanidino) = CN(C)C(=N[C@@H](CCCN)C(=O)*)N(C)C; hArg = N=C(N)NCCCC[C@H](N)C(=O)O; Orn = NCCC[C@H](N)C(=O)O

Key:
in vitro = in vitro ADME, mouse; details: 37° C.
Description: Serum stability studies were carried out in duplicate as described by Hoffmann et al.. Briefly, 28 μL of an aqueous peptide or peptidomimetics solution (0.5 mg/mL) was added to 0.2 mL freshly pooled 25% mouse serum (Sigma-Aldrich GmbH, Taufkirchen, Germany) in water. The mixtures were incubated at 37° C. under gentle stirring. The proteins were precipitated with 40 μL of 15% aqueous TCA after incubation times of 0, 0.5, 1, 2, 4 and 6 h at 0° C. for 20 min before centrifuged (13500×G) at 4° C. for 5 min. The supernatants of all samples (240 μL) were neutralized with 1 mol/L aqueous NaOH and immediately stored at −20° C. The supernatants were analyzed by RP-HPLC using a linear acetonitrile gradient as described above with 0.1% TFA as ion pair reagent. Collected fractions of the main peaks were further analyzed by tandem mass spectrometry (MALDI-TOF/TOF-MS, 4700 Proteomics Analyzer, Applied Biosystems GmbH, Weiterstadt, Germany) in positive ion reflector mode using α-cyanohydroxycinnamic acid (50% CH3CN in 0.1% aqueous TFA) as matrix to identify the degradation products of the peptides and peptidomimetics, i.e., metabolites, at the different time points. Serum control samples consisted of 200 μL of pooled 25% mouse serum in water, which were also precipitated with 40 μL 15% aqueous TCA, as described before. Peptide reference samples consisted of 28 μL of the peptide stock solution diluted in 0.2 mL water and 40 μL of 15% aqueous trichloroacetic acid (TCA).

[1] = tested on: S. enterica subsp. Enterica serovar. typhi G10215 ATCC 700408; format: cell-based, Salmonella enterica; details: ATCC 700408, 20 h
Description: (§1) The minimal inhibition concentrations (MIC) of the apidaecin-derived peptides and peptide-derivatives were determined by a growth inhibition assay using a serial peptide dilution in sterilized round-bottom 96-well plates (polystyrene, U-bottom, Greiner Bio-One GmbH) with a final volume of 100 μL per well. The bacteria, e.g., E. coli BL21 A1, were grown in nutrient broth (NB, Carl Roth GmbH+Co. KG, Karlsruhe, Germany) at 37° C. over night. To each well of the 96-well plate, 50 μL of the overnight culture adjusted to 5×10^6 CFU/mL in 1% TSB were added. Lyophilized peptides and peptidomimetics were dissolved in 1% TSB (tryptic soy broth) or water to give a final concentration of 250 μg/mL. Fifty μL of the peptide or peptidomimetics solution were added to the first well of a row on the plate and mixed. Fifty μL of the first well containing the peptide solution were transferred to the second well, mixed and again 50 μL transferred to the next well and so on. Thereby, a two-fold dilution series was obtained starting at 250 μg/mL in the first well down to 120 ng/mL in the 12th well of a row giving a final peptide or peptidomimetics concentration from 125 μg/mL (well 1) to 60 ng/mL (well 12). Plates were incubated at 37° C. for 20 hrs. The absorbance was measured at 595 nm using a TECAN micro plate spectrophotometer (Tecan, Germany). All peptides and peptidomimetics were measured in triplicates. Sterilized water was used as a negative control.
(§2) The following multidrug resistant bacteria strains were tested: • Eschericha coli 45849 and D31, • Klebsiella pneumoniae 123132 and K6, • Salmonella typhi S5 and Salmonella enterica subsp. enterica serovar Typhimurium (ATCC 700408), • Rhizobium radiobacter (ATCC 15955 deposited as Agrobacterium tumefaciens).

E. coli 45849 = test: Growth inhibition assay (MIC); format: cell-based, Escherichia coli; details: multidrug resistant strain; 1% TSB, 37° C., 20 hrs
Description: as §1, §2

E. coli D31 = format: cell-based, Escherichia coli; details: D31, 20 h
Description: as §1, §2

S. typhi S5 = format: cell-based, Salmonella typhi; details: S5, 20 h
Description: as §1, §2

[2] = tested on: K. Pneumonia K6, ATCC 700603; test: Growth inhibition assay (MIC); format: cell-based, Klebsiella pneumoniae; details: multidrug resistant strain; 1% TSB, 37° C., 20 hrs
Description: as §1, §2

K. Pneumonia 123132 = test: Growth inhibition assay (MIC); format: cell-based, Klebsiella pneumoniae; details: multidrug resistant strain; 1% TSB, 37° C., 20 hrs
Description: as §1, §2

E. coli 1103 = format: cell-based, Escherichia coli; details: 1103, 20 h
Description: as §1
(§3) The bacteria strains were tested: • Eschericha coli 1103, 10233, BL 21 AI, DC 2, • Klebsiella pneumoniae 681, • Micrococcus luteus ATCC 10240, • Mycobacterium vaccae • Bactillus subtillis 347.

E. coli BL 21 AI = test: Growth inhibition assay (MIC); format: cell-based, Escherichia coli; details: 1% TSB, 37° C., 20 hrs
Summary of the method: (§4)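 Peptides were serially diluted two-fold in 1% TSB, giving final concentrations from 125 μg/mL down to 60 ng/mL, and mixed with overnight bacterial culture adjusted to 5×10^6 CFU/mL in 1% TSB. After 20 hrs at 37 °C, growth was read as absorbance at 595 nm, in triplicate, with sterile water as negative control.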

B. subtilis 347 = format: cell-based, Bactillus subtillis; details: 347, 20 h
Description: as §1, §3

M. luteus ATCC 10240 = format: cell-based, Micrococcus luteus; details: ATCC 10240, 20 h
Summary of the method: as §4

K. pneumonia 681 = format: cell-based, Klebsiella pneumoniae; details: 20 h
Description: as §1, §3

[3] = tested on: R. radiobatter ATCC 15955; test: Growth inhibition assay (MIC); format: cell-based, Rhizobium radiobacter; details: multidrug resistant strain; 1% TSB, 37° C., 20 hrs
Description: as §1, §2

[4] = 25% aqueous mouse serum, read-out: Half-life time

| Compound | half-life at 0.061 mg/mL (in vitro; [4]) | MIC S. enterica subsp. Enterica serovar. typhi G10215 ATCC 700408 [1] | MIC E. coli 45849 (E. coli 45849) | MIC E. coli D31 (E. coli D31) | MIC S. typhi S5 (S. typhi S5) | MIC K. Pneumonia K6, ATCC 700603 [2] | MIC K. Pneumonia 123132 (K. Pneumonia 123132) | MIC M. luteus ATCC 10240 (M. luteus ATCC 10240) | other results |
| --- | --- | --- | --- | --- | --- | --- | --- | --- | --- |
| CC[C@H](C)[C@H](NC(=O)[C@@H]1CCCN1C(=O)[C@H](CCCNC(=N)N)NC(=O)[C@@H]1CCCN1C(=O)[C@H](Cc1c[nH]cn1)NC(=O)[C@@H]1CCCN1C(=O)[C@@H]1CCCN1C(=O)[C@H](CCCNC(=N)N)NC(=O)[C@@H]1CCCN1C(=O)[C@H](CCCNC(=N)N)NC(=O)[C@@H]1CCCN1C(=O)[C@@H](NC(=O)[C@H](Cc1ccc(O)cc1)NC(=O)[C@@H](NC(=O)[C@@H]1CCCN1C(=O)[C@H](CCCNC(=N)N)NC(=O)[C@H](CC(N)=O)NC(=O)[C@H](CC(N)=O)NC(=O)[C@H](CCCN)NC(C)=O)C(C)C)[C@@H](C)CC)C(=O)N[C@@H](CCCNC(=N)N)C(=O)N[C@H](C(=O)O)C(C)C [compound 24] (Ac-[Orn]NNRPVYIPRPRPPHPRPIRV-OH) | 4 h |  |  |  |  |  |  |  |  |
| CC[C@H](C)[C@H](NC(=O)[C@H](Cc1ccc(O)cc1)NC(=O)[C@@H](NC(=O)[C@@H]1CCCN1C(=O)[C@H](CCCNC(=N)N)NC(=O)[C@H](CC(N)=O)NC(=O)[C@H](CC(N)=O)NC(=O)[C@@H](N)CCCN)C(C)C)C(=O)N1CCC[C@H]1C(=O)N[C@@H](CCCNC(=N)N)C(=O)N1CCC[C@H]1C(=O)N[C@@H](CCCNC(=N)N)C(=O)N1CCC[C@H]1C(=O)N1CCC[C@H]1C(=O)N[C@@H](Cc1c[nH]cn1)C(=O)N1CCC[C@H]1C(=O)N[C@@H](CCCN)C(=O)N[C@@H](CC(C)C)C(N)=O [compound 81] (H-[Orn]NNRPVYIPRPRPPHP[Orn]L-NH2) | 2 h | 4 µg/mL (≈ 1.86 µM) | 8 µg/mL (≈ 3.72 µM) | 8 µg/mL (≈ 3.72 µM) | 4 µg/mL (≈ 1.86 µM) | 16 µg/mL (≈ 7.44 µM) | 8 µg/mL (≈ 3.72 µM) |  |  |
| CC[C@H](C)[C@H](NC(=O)[C@H](Cc1ccc(O)cc1)NC(=O)[C@@H](NC(=O)[C@@H]1CCCN1C(=O)[C@H](CCCNC(=N)N)NC(=O)[C@H](CC(N)=O)NC(=O)[C@H](CC(N)=O)NC(=O)[C@H](CCCN)NC(C)=O)C(C)C)C(=O)N1CCC[C@H]1C(=O)N[C@@H](CCCNC(=N)N)C(=O)N1CCC[C@H]1C(=O)N[C@@H](CCCNC(=N)N)C(=O)N1CCC[C@H]1C(=O)N1CCC[C@H]1C(=O)N[C@@H](Cc1c[nH]cn1)C(=O)N1CCC[C@H]1C(=O)N[C@@H](CCCN)C(=O)N[C@@H](CC(C)C)C(N)=O [compound 82] (Ac-[Orn]NNRPVYIPRPRPPHP[Orn]L-NH2) | > 6 h | 8 µg/mL (≈ 3.65 µM) | 16 µg/mL (≈ 7.3 µM) | 32 µg/mL (≈ 14.6 µM) | 8 µg/mL (≈ 3.65 µM) | 32 µg/mL (≈ 14.6 µM) | 8 µg/mL (≈ 3.65 µM) |  | half-life (in vitro; 25% aqueous serum): The same stability |
| CC[C@H](C)[C@H](NC(=O)[C@H](Cc1ccc(O)cc1)NC(=O)[C@@H](NC(=O)[C@@H]1CCCN1C(=O)[C@H](CCCNC(=N)N)NC(=O)[C@H](CC(N)=O)NC(=O)[C@H](CC(N)=O)NC(=O)[C@H](CCCN)NC(C)=O)C(C)C)C(=O)N1CCC[C@H]1C(=O)N[C@@H](CCCNC(=N)N)C(=O)N1CCC[C@H]1C(=O)N[C@@H](CCCNC(=N)N)C(=O)N1CCC[C@H]1C(=O)N1CCC[C@H]1C(=O)N[C@@H](Cc1c[nH]cn1)C(=O)N1CCC[C@H]1C(=O)N[C@@H](CCCCNC(=N)N)C(=O)N[C@@H](CC(C)C)C(N)=O [compound 131] (Ac-[Orn]NNRPVYIPRPRPPHP[hArg]L-NH2) | 2 h |  |  |  |  |  |  | 0.5 µg/mL (≈ 0.222 µM) | MIC E. coli 1103 (E. coli 1103): 16 µg/mL (≈ 7.12 µM); MIC E. coli BL 21 AI (E. coli BL 21 AI): 4 µg/mL (≈ 1.78 µM); MIC B. subtilis 347 (B. subtilis 347): 32 µg/mL (≈ 14.2 µM); MIC K. pneumonia 681 (K. pneumonia 681): 16 µg/mL (≈ 7.12 µM) |
| CC[C@H](C)[C@H](NC(=O)[C@H](Cc1ccc(O)cc1)NC(=O)[C@@H](NC(=O)[C@@H]1CCCN1C(=O)[C@H](CCCNC(=N)N)NC(=O)[C@H](CC(N)=O)NC(=O)[C@H](CC(N)=O)NC(=O)[C@H](CCCN)N=C(N(C)C)N(C)C)C(C)C)C(=O)N1CCC[C@H]1C(=O)N[C@@H](CCCNC(=N)N)C(=O)N1CCC[C@H]1C(=O)N[C@@H](CCCNC(=N)N)C(=O)N1CCC[C@H]1C(=O)N1CCC[C@H]1C(=O)N[C@@H](Cc1c[nH]cn1)C(=O)N1CCC[C@H]1C(=O)N[C@@H](CCCN)C(=O)N[C@@H](CC(C)C)C(N)=O [compound 134] ({Orn(α-tetramethylguanidino)}-NNRPVYIPRPRPPHP[Orn]L-NH2; N-terminus and C-terminus assumed) |  |  |  |  |  |  |  | 4 µg/mL (≈ 1.78 µM) | half-life (in vitro; [4]): > 6 h; MIC E. coli 1103 (E. coli 1103): 32 µg/mL (≈ 14.2 µM); MIC B. subtilis 347 (B. subtilis 347): >128 µg/mL; MIC K. pneumonia 681 (K. pneumonia 681): 16 µg/mL (≈ 7.12 µM) |
| Ac-KNNRPVYIPKPRPPHPRL-NH2 [compound 22] |  | 1 µg/mL | 1 µg/mL | 16 µg/mL | 1 µg/mL | 16 µg/mL | 16 µg/mL | 1.95 µg/mL | MIC R. radiobatter ATCC 15955 [3]: <0.16 µg/mL; MIC E. coli BL 21 AI (E. coli BL 21 AI): 1.95 µg/mL |
| GNNRPVYIPQPRPPHPRI [compound 1] | 2 h |  |  |  |  |  |  |  |  |
| GNNRPVYIPQPRPPHPRI-NH2 [compound 4] | 0.25 h |  |  |  |  |  |  |  |  |
| GNNRPVYIPQPRPPHPRL [compound 2] | 2 h |  |  |  |  |  |  |  |  |
| GNNRPVYIPQPRPPHPRL-NH2 [compound 6] | 0.25 h | 0.125 µg/mL | 0.5 µg/mL | 1 µg/mL | 0.125 µg/mL | 16 µg/mL | 16 µg/mL |  |  |
| GNNRPVYIPQPRPPHPRPIRV-NH2 [compound 110] | 6 h |  |  |  |  |  |  |  |  |
| GNNRPVYIPRPRPPHPRLV-NH2 [compound 25] |  | 1 µg/mL | 1 µg/mL | 64 µg/mL | 2 µg/mL | 16 µg/mL | 16 µg/mL | 1.95 µg/mL | MIC R. radiobatter ATCC 15955 [3]: 0.65 µg/mL; MIC E. coli BL 21 AI (E. coli BL 21 AI): 3.91 µg/mL |
